Data from patent publication US20210024499A1, “OXIDIZED BIS(3-INDOLYL)METHANES AND USES THEREOF” (Sanford Burnam Prebys Medical Discovery Institute, priority 2018, published 2021).
Values joined by “and” are separate entries in the source; they are usually repeats but may differ in a detail not shown here. Equal values may be shown once.

What was measured:
[1] = tested on: parental HeLa cells; assay: Annexin V/PI staining, parental HeLa; type: cell-based; settings: methanesulfonate
[2] = tested on: Bcl-2−/−MEF cells; assay: Mitochondrial ROS, Bcl-2-/- MEF; type: cell-based, mouse
Procedure: Loss of mitochondrial membrane potential (Avm) represents one of the hallmarks of apoptosis. A JC-1 probe was employed to measure mitochondrial depolarization in cancer cells. MDA-MB-231 breast cancer cells were treated with different concentration of test compounds for 6 hours. JC-1 staining solution (5 μg/ml) was added at 37° C. for 20 min. After washing with PBS twice, mitochondrial membrane potentials were monitored by determining the relative amounts of dual emission from a multiple fluorescence reader. The fluorescence in cells was quantitatively analyzed by flow cytometry. Mitochondrial depolarization is depicted by an increase in the green/red fluorescence intensity ratio. ROS were monitored with the oxiadtion-senstive fluorescent probe 2′7′-dichlorodihydroflurescenin diacetate (DCF-DA).
In addition, Bcl-2^−/−MEF cells were more resistant than the parental MEF cells to Compound 1 in its induction of the mitochondrial membrane potential loss measured by JC1 staining and in the release of mitochondrial ROS (as performed in Example A-12).

For FC(F)(F)c1ccc([C+](c2c[nH]c3ccccc23)c2c[nH]c3ccccc23)cc1 [Compound 1, Bis(1H-indol-3-yl)(4-(trifluoromethyl)phenyl)methylium methanesulfonate], the “apoptotic effect (Annexin V/PI staining)” value [1] was 35.55% and 24.59% and the “increase in mito-ROS relative to regular MEF cells” value [2] was “smaller increase”.
